Laboratory results reported in patent US10758513B2, “Modulators of mitochondrial protein import” (THE REGENTS OF THE UNIVERSITY OF CALIFORNIA, priority 2011, dated 2020).
≈ marks a conversion by molar mass, not a printed value.

How the values were obtained:
tim10-1 mutant = test: Yeast growth inhibition (MIC50), tim10-1 mutant; type: cell-based; settings: Saccharomyces cerevisiae, read-out: MIC50 that inhibited growth of the tim10-1 mutant
Description: The screen was conducted with an integrated robotic system with plate scheduling. Briefly, diversity oriented commercial libraries of drug-like compounds from Chembridge and Asinex were screened against the tim10-1 strain at a concentration of approximately 10 μM. The screen encompassed a total of approximately 50,000 compounds dissolved in DMSO. Yeast in YPD medium was aliquoted into 384-well plates followed by compound addition with robotic pinning into the assay wells. DMSO was the vehicle for the small molecules, and several plate columns that contained only 1% DMSO were included as a control with the pinned compounds. As a negative control for growth, wells pinned with the mitochondrial uncoupler CCCP, which caused lethality, were also included. After 2 days of incubation at 25° C., cultures in each well were measured for optical density (O.D.) as a measure of growth. A typical reading for the positive control was OD600=0.8. […]
A primary screen was performed using freshly streaked tim10-1 diluted in YPD to an OD600 of approximately 0.0002 and kept on ice throughout the screening run. […] Each plate was shaken in a Beckman orbital shaker to resuspend settled cells, and the OD600 in each well was read by a Wallac Victor plate reader (Perkin Elmer). The top 600 growth inhibitory compounds were determined and assembled into two plates. […]

[1] = Stability of MitoBloCK-6 in screening buffer by LC-MS; type: physicochemical; settings: pH 3.4, 6.5, 7.4; room temperature, 1 hour
Description: MitoBloCK-6 at a final concentration of 3 mM was incubated with screening buffer (30 mM Hepes, 100 mM NaCl, 1 mM EDTA) at pH 3.4, 6.5, and 7.4 in a reaction volume of 100 μl at room temperature for 1 hour. The sample was injected into the LC-MS and retention was monitored. As a control, 20 mM MitoBloCK-6 in 1% DMSO was also analyzed.
LC-MS experiments were carried out on a Waters Acquity UPLC connected to a Waters LCT-Premier XE Time of Flight Instrument controlled by MassLynx 4.1 software. The mass spectrometer was equipped with a Multi-Mode Source operated in the electrospray mode. Briefly, samples of MitoBloCK-6, ES-1, and ES-2 were separated using an Acquity BEH C18 1.7 um column (2.1×50 mm, Waters) and were eluted with a gradient of 0.5 mL/min water/acetonitrile with 2, 80, and 95% acetonitrile at 0.5, 2.5 and 3.5 min, respectively. Mass spectra were recorded from 80 to 2000 Daltons. All solvents were LC-MS/MS Grade and purchased from Fisher Scientific.

Row | Structure (SMILES) | MIC50 (tim10-1 mutant) [µM] | stability by LC-MS [1]
1 | NC(=S)N/N=C/c1c(O)c(Br)cc2oc3c(c12)CCCC3 [MitoBloCK-1] | ~1 (≈ 0.368 µg/mL) | 
2 | Oc1c(Cl)cc(Cl)cc1/C=N/c1ccc(Nc2ccccc2)cc1 [MitoBloCK-6] |  | stable over this pH range
